# Experimental data published in patent US20060264419A1 (priority 2003, published 2006).
# Target: 5-HT2A receptors (Rattus norvegicus, UniProt P14842)
# Assay: in-vitro affinity to 5-HT2A receptors, displacement of [3H]ketanserine (Example A1)
# Type: binding
# Conditions: read-out: HT2A IC50
# From the text: The 5-HT2A receptors are exposed both to [^3H]ketanserine (a substance which is known for its affinity to the receptor) and also to the test compound. The decrease in the affinity of [^3H]ketanserine to the receptor is an indication of the affinity of the test substance to the 5-HT2A receptor.
# Chain of 5-HT2A receptors (P14842 whole entry): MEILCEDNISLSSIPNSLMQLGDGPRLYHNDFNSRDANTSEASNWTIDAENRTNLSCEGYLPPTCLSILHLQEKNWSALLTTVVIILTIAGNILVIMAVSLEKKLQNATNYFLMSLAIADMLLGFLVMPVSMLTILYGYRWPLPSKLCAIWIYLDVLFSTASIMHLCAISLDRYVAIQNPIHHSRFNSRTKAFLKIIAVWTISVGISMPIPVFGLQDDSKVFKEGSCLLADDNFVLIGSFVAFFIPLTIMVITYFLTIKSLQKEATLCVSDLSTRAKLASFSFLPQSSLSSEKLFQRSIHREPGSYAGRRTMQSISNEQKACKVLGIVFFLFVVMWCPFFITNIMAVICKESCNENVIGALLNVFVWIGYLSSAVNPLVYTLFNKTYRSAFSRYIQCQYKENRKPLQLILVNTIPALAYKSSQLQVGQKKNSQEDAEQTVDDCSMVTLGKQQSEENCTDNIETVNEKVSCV
row,Compound,IC50 [nM]
1,"CN1CCN(Cc2cnn(-c3ccc(-c4ccc(F)cc4)cc3)c2-c2cc(Cl)cc(Cl)c2)CC1 [Example 1052, 1-[5-(3,5-Dichlorophenyl)-1-(4′-fluoro-biphenyl-4-yl)-1H-pyrazol-4-ylmethyl]-4-methyl-piperazine]",400
2,"CN1CCN(Cc2cnn(-c3ccc(-c4cccc(F)c4F)cc3)c2-c2ccccc2F)CC1 [Example 967, 1-[1-(2′,3′-Difluorobiphenyl-4-yl)-5-(2-fluoro-phenyl)-1H-pyrazol-4-ylmethyl]-4-methyl-piperazine]",73
3,"CCNC(=O)CN1CCN(Cc2cnn(-c3ccc(-c4ccccc4)cc3)c2-c2ccccc2F)CC1 [Example 1018, 2-{4-[1-Biphenyl-4-yl-5-(2-fluoro-phenyl)-1H-pyrazol-4-ylmethyl]piperazin-1-yl}-N-ethyl-acetamide]",230
4,"CC1CN(Cc2cnn(-c3ccc(-c4ccccc4)cc3)c2-c2ccccc2F)CC(C)N1 (centres unmarked) [Example 979, 1-[1-Biphenyl-4-yl-5-(2-fluorophenyl)-1H-pyrazol-4-ylmethyl]-3,5-dimethylpiperazine]",100
5,Cc1nn(-c2ccccc2)c(C)c1CN1CCN(C(=O)CC(C)C(=O)O)CC1 (centres unmarked) [Example 978],100
6,"OC1CCN(Cc2cnn(-c3ccc(C(F)(F)F)cn3)c2-c2ccccc2F)C1 (centres unmarked) [Example 1050, 1-[5-(2-Fluorophenyl)-1-(5-trifluoro-methylpyridin-2-yl)-1H-pyrazol-4-ylmethyl]pyrrolidin-3-ol]",390
7,"CC(=O)Nc1cccc(-c2ccc(-n3ncc(CN4CCN(C)CC4)c3-c3ccccc3F)cc2)c1 [Example 988, N-{4′-[5-(2-Fluorophenyl)-4-(4-methyl-piperazin-1-ylmethyl)pyrazol-1-yl]biphenyl-3-yl}acetamide]",130
8,"Fc1ccccc1-c1c(CNC2CCNCC2)cnn1-c1ccc(-c2ccccc2)cc1 [Example 1058, [1-Biphenyl-4-yl-5-(2-fluorophenyl)-1H-pyrazol-4-ylmethyl]piperidin-4-ylamine]",470
9,1-(Biphenyl-4-yltrifluoromethyl-1H-pyrazol-4-ylmethyl)-4-methylpiperazine [Example 1026],260

# Now from value to compound:
row,IC50 [nM],Compound
1,370,"OCC(Cc1cnc[nH]1)NCc1cnn(-c2ccc(-c3ccccc3)cc2)c1-c1ccccc1F (centres unmarked) [Example 1045, 2-{[1-Biphenyl-4-yl-5-(2-fluoro-phenyl)-1H-pyrazol-4-ylmethyl]amino}-3-(3H-imidazol-4-yl)propan-1-ol]"
2,160,"CN1CCC(N(C)Cc2cnn(-c3ccc(-c4ccccc4)cc3)c2-c2ccccc2F)CC1 [Example 995, [1-Biphenyl-4-yl-5-(2-fluorophenyl)-1H-pyrazol-4-ylmethyl]methyl-(1-methylpiperidin-4-yl)amine]"
3,220,Cc1nn(-c2ccccc2)c(C)c1CN1CCN(C(=O)C(CCC(=O)O)N2C(=O)c3ccccc3C2=O)CC1 (centres unmarked) [Example 1015]
4,75,"Fc1ccccc1-c1c(CN2CCN(Cc3ccncc3)CC2)cnn1-c1ccc(-c2ccccc2)cc1 [Example 968, 1-[1-Biphenyl-4-yl-5-(2-fluorophenyl)-1H-pyrazol-4-ylmethyl]-4-pyridin-4-ylmethylpiperazine]"
5,320,"COc1ccc(-c2c(CN3CCN(C(C)C)CC3)cnn2-c2ccc(-c3ccc(F)cc3)cc2)cc1 [Example 1040, 1-[1-(4′-Fluorobiphenyl-4-yl)-5-(4-methoxy-phenyl)-1H-pyrazol-4-ylmethyl]-4-isopropyl-piperazine]"
6,170,"Fc1ccccc1-c1c(CNCCc2c[nH]cn2)cnn1-c1ccc(-c2ccccc2)cc1 [Example 1002, [1-Biphenyl-4-yl-5-(2-fluorophenyl)-1H-pyrazol-4-ylmethyl]-[2-(1H-imidazol-4-yl)-ethyl]amine]"
7,200,"CN(C)C1CCN(Cc2cnn(-c3ccc(-c4ccccc4)cc3)c2-c2ccccc2F)CC1 [Example 1008, {1-[1-Biphenyl-4-yl-5-(2-fluorophenyl)-1H-pyrazol-4-ylmethyl]piperidin-4-yl}dimethyl-amine]"

# Same assay, conditions: target not given; description names affinity to 5-HT2A receptors; read-out: IC50
row,Compound,IC50 [nM]
1,"Nc1ccc(NCc2cnn(-c3ccc(-c4ccc(F)cc4)nc3)c2-c2ccccc2F)cn1 [(194), N^5-{5-(2-Fluorophenyl)-1-[6-(4-fluorophenyl)pyridin-3-yl]-1H-pyrazol-4-ylmethyl}pyridine-2,5-diamine]",590
2,"O=C(Nc1ccccc1)N1CCN(Cc2cnn(-c3ccc(-c4ccccc4)cc3)c2-c2ccccc2F)CC1 [(126), N-Phenyl-4-[1-biphenyl-4-yl-5-(2-fluorophenyl)-1H-pyrazol-4-ylmethyl]piperazine-1-carboxamide]",790
3,"CN1CCN(Cc2cnn(-c3ccc(-c4cc(F)ccc4F)cc3)c2-c2ccccc2)CC1 [(68), 1-[1-(2′,5′-Difluorobiphenyl-4-yl)-5-phenyl-1H-pyrazol-4-ylmethyl]-4-methylpiperazine]",110
4,"O=C1CCCN1CCCNCc1cnn(-c2ccc(-c3ccccc3)cc2)c1-c1ccccc1F [(151), 1-(3-{[1-Biphenyl-4-yl-5-(2-fluorophenyl)-1H-pyrazol-4-ylmethyl]amino}propyl)pyrrolidin-2-one]",64
5,"CCN1CCCC1CNCc1cnn(-c2ccc(-c3ccccc3)cc2)c1-c1ccccc1F (centres unmarked) [(88), [1-Biphenyl-4-yl-5-(2-fluorophenyl)-1H-pyrazol-4-ylmethyl]-(1-ethylpyrrolidin-2-ylmethyl)amine]",20
6,"Cc1cnc(NCc2cnn(-c3ccc(-c4ccccc4)cc3)c2-c2ccccc2F)s1 [(178), [1-Biphenyl-4-yl-5-(2-fluorophenyl)-1H-pyrazol-4-ylmethyl]-(5-methylthiazol-2-yl)amine]",370
7,"c1ccc(-c2ccc(-n3ncc(CNCc4ccncc4)c3-c3ccccc3)cc2)cc1 [(170), (1-Biphenyl-4-yl-5-phenyl-1H-pyrazol-4-ylmethyl)pyridin-4-ylmethylamine]",31
8,"CN1CCN(Cc2cnn(-c3ccc(OC(F)(F)F)cc3)c2-c2ccccc2F)CC1 [(115), 1-[5-(2-Fluorophenyl)-1-(4-trifluoromethoxyphenyl)-1H-pyrazol-4-ylmethyl]-4-methylpiperazine]",270
9,"CCC1(O)CCN(Cc2cnn(-c3ccc(-c4ccccc4)cc3)c2-c2ccccc2F)CC1 [(80), 1-[1-Biphenyl-4-yl-5-(2-fluorophenyl)-1H-pyrazol-4-ylmethyl]-4-ethylpiperidin-4-ol]",280
10,"NCc1cnn(-c2ccc(-c3ccccc3)cc2)c1-c1ccccc1 [(165), C-(1-Biphenyl-4-yl-5-phenyl-1H-pyrazol-4-yl)methylamine]",21
11,"OCCNCc1cnn(-c2ccc(-c3ccccc3)cc2)c1-c1ccccc1F [(77), 2-{[1-Biphenyl-4-yl-5-(2-fluorophenyl)-1H-pyrazol-4-ylmethyl]-amino}ethanol]",5.2
12,"Fc1ccccc1-c1c(CNc2ccon2)cnn1-c1ccc(-c2ccccc2)cc1 [(138), [1-Biphenyl-4-yl-5-(2-fluorophenyl)-1H-pyrazol-4-ylmethyl]-isoxazol-3-ylamine]",240
13,"CN1CCN(Cc2cnn(-c3ccc(C(F)(F)F)cc3)c2-c2ccccc2F)CC1 [(87), 1-[5-(2-Fluorophenyl)-1-(4-trifluoromethylphenyl)-1H-pyrazol-4-ylmethyl]-4-methylpiperazine]",160
14,"Fc1ccccc1-c1cc(CN2CCOCC2)nn1-c1ccc(-c2ccccc2)cc1 [(44), 4-[1-Biphenyl-4-yl-5-(2-fluorophenyl)-1H-pyrazol-3-ylmethyl]-morpholine]",1100
15,"Fc1ccccc1-c1c(CN2CCC2)cnn1-c1ccc(-c2ccccc2)cc1 [(160), 4-Azetidin-1-ylmethyl-1-biphenyl-4-yl-5-(2-fluorophenyl)-1H-pyrazole]",47
16,"COCCNCc1cnn(-c2ccc(-c3ccccc3)cc2)c1-c1ccccc1F [(78), [1-Biphenyl-4-yl-5-(2-fluorophenyl)-1H-pyrazol-4-ylmethyl]-(2-methoxyethyl)amine]",16
17,"CN(C)Cc1cnn(-c2ccc(-c3ccccc3)cc2)c1-c1ccccc1F [(34), [1-Biphenyl-4-yl-5-(2-fluorophenyl)-1H-pyrazol-4-ylmethyl]-dimethylamine]",21

# Continued, values first:
row,IC50 [nM],Compound
1,280,"OCCN1CCN(Cc2cnn(-c3ccc(-c4ccccc4)cc3)c2-c2ccccc2F)CC1 [(79), 2-{4-[1-Biphenyl-4-yl-5-(2-fluorophenyl)-1H-pyrazol-4-ylmethyl]piperazin-1-yl}ethanol]"
2,780,"CC(C)(C)OC(=O)N1CCN(Cc2cnn(-c3ccc(-c4ccccc4)cc3)c2-c2ccccn2)CC1 [(59), tert-Butyl 4-(1-biphenyl-4-yl-5-pyridin-2-yl-1H-pyrazol-4-ylmethyl)piperazine-1-carboxylate]"
3,58,"CCOC(=O)N1CCN(Cc2cnn(-c3ccc(-c4ccccc4)cc3)c2-c2ccccc2F)CC1 [(182), Ethyl 4-[1-biphenyl-4-yl-5-(2-fluorophenyl)-1H-pyrazol-4-ylmethyl]piperazine-1-carboxylate]"
4,1200,"Fc1ccccc1-c1c(C=NNC2=NCCN2)cnn1-c1ccc(-c2ccccc2)cc1 [(166), N-[1-Biphenyl-4-yl-5-(2-fluorophenyl)-1H-pyrazol-4-yl-methylene]-N′-(4,5-dihydro-1H-imidazol-2-yl)hydrazine]"
5,1200,"OCc1cnn(-c2ccc(-c3ccccc3)cc2)c1-c1ccccc1F [(21), [1-Biphenyl-4-yl-5-(2-fluorophenyl)-1H-pyrazol-4-yl]-methanol]"
6,48,"Fc1ccccc1-c1c(CN2CCCCCC2)cnn1-c1ccc(-c2ccccc2)cc1 [(31), 1-[1-Biphenyl-4-yl-5-(2-fluorophenyl)-1H-pyrazol-4-ylmethyl]-azepan]"
7,230,"CN(C)C1CCN(Cc2cnn(-c3ccc(-c4ccccc4)cc3)c2-c2ccccc2F)C1 (centres unmarked) [(167), {1-[1-Biphenyl-4-yl-5-(2-fluorophenyl)-1H-pyrazol-4-ylmethyl]-pyrrolidin-3-yl}dimethylamine]"
8,320,"Fc1ccc(-c2ccc(-n3ncc(CNc4ccon4)c3-c3ccccc3F)cn2)cc1 [(174), {5-(2-Fluorophenyl)-1-[6-(4-fluorophenyl)pyridin-3-yl]-1H-pyrazol-4-ylmethyl}isoxazol-3-ylamine]"
